According to DBAASP:
In brackets after ≈: the same amount, converted by molar mass.

Legend:
Experiment in all cases: ≥ marks a high value that may be exact or a test limit, other limits are often not marked, values filed in µg/mL are converted to µM
Escherichia coli = tested on: Escherichia coli
[1] = tested on: Pseudomonas aeruginosa H188
[2] = tested on: Escherichia coli DH5alpha
[3] = tested on: Escherichia coli ATCC 25922
[4] = tested on: Pseudomonas aeruginosa ATCC 27853
Escherichia coli JW3441 = tested on: Escherichia coli JW3441
Escherichia coli MG1655 = tested on: Escherichia coli MG1655
Escherichia coli JW5831 = tested on: Escherichia coli JW5831

MIC (Escherichia coli) [µM]	MIC [1] [µM]	MIC [2] [µM]	MIC [3] [µM]	MIC [4] [µM]	MIC (Escherichia coli JW3441) [µM]	MIC (Escherichia coli MG1655) [µM]	MIC (Escherichia coli JW5831) [µM]	Structure (SMILES)
42 (≈ 127 µg/mL)	21.5 (≈ 64.9 µg/mL)	21.5 (≈ 64.9 µg/mL)	5.37 (≈ 16.2 µg/mL)	42 (≈ 127 µg/mL)				CC[C@H](C)[C@H](NC(=O)[C@H](C)NC(=O)[C@H](CCCCN)NC(=O)[C@H](CC(C)C)NC(=O)[C@H](C)NC(=O)[C@@H](NC(=O)[C@H](Cc1cnc[nH]1)NC(=O)[C@H](CC(C)C)NC(=O)[C@H](CCC(=O)O)NC(=O)[C@@H](NC(=O)[C@H](CCCCN)NC(=O)[C@H](CCCCN)NC(=O)[C@H](C)NC(=O)[C@H](CO)NC(=O)[C@H](CCCCN)NC(=O)[C@H](Cc1ccccc1)NC(=O)[C@@H](NC(=O)[C@H](CCCCN)NC(=O)[C@H](CC(C)C)NC(=O)[C@H](Cc1ccccc1)NC(=O)[C@H](CO)NC(=O)[C@H](CCCCN)NC(=O)[C@H](Cc1c[nH]c2ccccc12)NC(=O)[C@H](CCCCN)NC(C)=O)[C@@H](C)O)[C@@H](C)O)[C@@H](C)O)C(=O)N[C@@H](CO)C(=O)N[C@@H](CO)C(N)=O [KWKSFLKTFKSAKKTELHTALKAISS]
					4 (≈ 10.7 µg/mL)	4 (≈ 10.7 µg/mL)	4 (≈ 10.7 µg/mL)	CC[C@H](C)[C@H](NC(=O)[C@H](CCCCN)NC(=O)CNC(=O)[C@H](CC(C)C)NC(=O)[C@H](CC(C)C)NC(=O)[C@H](Cc1cnc[nH]1)NC(=O)[C@H](Cc1ccccc1)NC(=O)[C@@H](N)C(C)C)C(=O)N[C@H](C(=O)N[C@@H](Cc1cnc[nH]1)C(=O)N[C@@H](Cc1cnc[nH]1)C(=O)N[C@H](C(=O)NCC(=O)N[C@@H](CC(N)=O)C(=O)N[C@@H](Cc1ccccc1)C(=O)N[C@H](C(=O)N[C@@H](Cc1ccc(O)cc1)C(=O)NCC(=O)N[C@@H](Cc1ccccc1)C(=O)N[C@@H](CO)C(=O)N[C@@H](Cc1cnc[nH]1)C(=O)N[C@H](C(=O)N[C@@H](Cc1ccccc1)C(N)=O)C(C)C)C(C)C)C(C)C)[C@@H](C)CC [VFHLLGKIIHHVGNFVYGFSHVF]
